Experimental data: US10479814B2, “Adenosine receptor activation reagent and the uses of thereof” (Zhejiang Subtropical Crops Research Institute, priority 2014, dated 2019)

Assays:
[1] = molecular target: T1, rat cerebral cortex adenosine A1 receptor (Rattus norvegicus, UniProt P25099); experiment: adenosine A1 receptor ligand binding test ([3H]DPCPX)
T1 construct: DPCPX; from tissue; host or cells: Wistar rat cerebral cortex
T1 sequence (P25099 1-326): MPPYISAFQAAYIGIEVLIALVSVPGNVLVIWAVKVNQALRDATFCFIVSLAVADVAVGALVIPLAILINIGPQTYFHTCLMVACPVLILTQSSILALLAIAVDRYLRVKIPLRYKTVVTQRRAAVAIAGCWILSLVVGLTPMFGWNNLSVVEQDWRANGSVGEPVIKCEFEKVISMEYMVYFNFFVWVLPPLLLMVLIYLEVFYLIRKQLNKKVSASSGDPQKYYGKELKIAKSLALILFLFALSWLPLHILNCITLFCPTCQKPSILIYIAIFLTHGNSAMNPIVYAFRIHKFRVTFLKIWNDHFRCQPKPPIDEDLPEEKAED

[2] = system: mouse PD model induced by MPTP; experiment: MPTP induced mouse PD model: pole-climbing method; type: in vivo; details: MPTP 30 mg/kg mice; Cordyceps cicadae extract 1500 mg/kg; HEA 10 mg/kg ip; 14 days
Procedure: 24±1 g male C57BL/6 mice were randomly divided into six groups: control group, model group, Cordyceps cicadae extract group (1500 mg/kg) (the extract method can refer to Example 3), HEA (5 mg/kg, 10 mg/kg, 15 mg/kg) group. Using mouse PD model induced by 1-methyl-4-phenyl-[…] (MPTP), in Cordyceps cicadae crude extract group and HEA with different concentration group were respectively peritoneal injected for consecutive 14 days, and at Day 11, before 1 hour of drug administration, MPTP 30 mg/kg was peritoneally injected, for consecutive 4 days, after one day after the last administration, a behavior test of pole-climbing ability was conducted, after 4 days the rat wad killed by puling neck and the striatum was removed. The control group was given same amount of normal saline, the model group at Day 11, one hour before the normal saline was given, MPTP 30 mg/kg was peritoneally injected, for four consecutive days.
Heading down, the mouse was placed onto top of a wooden pole with a length of 50 cm, diameter of 10 mm, the time for the mouse clime from top to bottom along the pole was record, the time difference between before and after the modeling was calculate, and analyzed statistically.

[3] = molecular target: T2, rat striatum adenosine A2A receptor (Rattus norvegicus, UniProt P30543); experiment: adenosine A2A receptor ligand binding test ([3H]MSX-2); details: rat striatum homogenate, 0.75 nM [3H]MSX-2, 25° C. 30 min; read-out: Ki value of competitive binding with the adenosine A2A receptor
T2 construct: from tissue; host or cells: Wistar rat striatum
T2 sequence (P30543 whole entry): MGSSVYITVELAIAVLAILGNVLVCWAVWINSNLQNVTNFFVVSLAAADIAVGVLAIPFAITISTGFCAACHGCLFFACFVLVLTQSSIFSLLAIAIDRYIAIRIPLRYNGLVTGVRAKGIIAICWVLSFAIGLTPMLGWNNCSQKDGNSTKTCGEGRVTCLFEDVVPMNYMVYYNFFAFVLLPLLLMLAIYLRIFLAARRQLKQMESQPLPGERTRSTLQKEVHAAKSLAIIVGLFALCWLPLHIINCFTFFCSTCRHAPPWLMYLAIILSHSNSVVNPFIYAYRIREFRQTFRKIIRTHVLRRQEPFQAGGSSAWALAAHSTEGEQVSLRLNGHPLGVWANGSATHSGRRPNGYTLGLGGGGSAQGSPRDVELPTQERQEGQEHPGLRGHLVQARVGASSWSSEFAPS
Procedure: Using Wistar rat, head was cut and the brain was removed, and cerebral cortex and striatum were separated, respectively weighed, added into 10 fold volume of ice-cooled Tris-HCL buffer solution (50 mM, PH7.5) according to 1:10, the tissue is homogenized, after the suspension was centrifuged the supernatant was discarded, the above-described solution wash was repeated for 3 times, centrifuged again and the supernatant was discarded, the precipitate was again mixed in 50 mM Tris-HCL buffer solution, the protein concentration in rat cerebral cortex determined by Coomassie Brilliant Blue Method (Bradford method) was 0.8 mg/ml, the protein content in rat striatum brain tissue homogenate was 1.3 mg/ml.
To a detect tube the HEA with different concentration (10^−9, 10^−8, 10^−7, 10^−6, 10^−5 mol/L) were added, mixed well, then incubated at 25° C. in water bath on shaking table for 30 min, the reaction liquid was drawn by a cell collector, passed the GF/B glass filter membrane (Watman), reaction was terminated, washed 3 times with Tris-HCl buffer solution, each time 3 ml, the filter membrane was removed and dried, then put into a scintillation vial containing 4 ml of scintillation solution to determine radioactivity. A radioactivity count to the filter membrane was conducted by a scintillation counter.

## OCCNc1ncnc2c1ncn2[C@@H]1O[C@H](CO)[C@@H](O)[C@H]1O [HEA, N(6)-(2-hydroxyethyl)-adenosine]
[1]; A1 versus A2A
  affinity to adenosine A1 receptor relative to adenosine A2A receptor: 100 fold
[1]; A1 versus A2A binding
  selectivity to A1 receptor (in words): high selectivity to A1 receptor
[1]; rat cerebral cortex homogenate, 0.2 nM [3H]DPCPX, 25° C. 30 min, read-out: Ki value of competitive binding with the adenosine A1 receptor
  Ki: 0.0895 µM
[2]
  multilimb coordination ability (pole-climbing): improve multilimb coordination ability of mouse to different degree
[3]
  Ki: ~8.92 µM
